Literature values, collected in PMC6024615, “Effect of Biliary Drainage on the Toxicity and Toxicokinetics of Amanita exitialis in Beagles” (Toxins, 2018).

Key:
[1] = human and rats; cited from earlier work
Description: Vesconi et al. found amatoxins were detectable in the serum of 65% patients within 30 h after ingestion of Amanita phalloides. In another study in patients intoxicated with Amanita phalloides, amatoxins were detectable in the plasma of most patients within 36 h after ingestion. […] These toxins were rapidly detected (30 min) in plasma and ...

[2] = intravenous injection, general anesthesia, radioactivity; cited from earlier work
Description: In previous studies, the radioactivity of labeled amatoxins in the serum of dogs or pigs was determined after an intravenous injection of amatoxins; bile was collected and measured using tubes tied to the bile duct under general anesthesia. More than 80% of 14C-methyl-γ-amanitin (14C-A) was eliminated in the urine, with less than 10% in the bile. Different toxin exposure patterns might result in different toxicokinetic data. 14C-A and 3H-O-methyl-dehydroxymethyl-α-amanitin (3H-A) were used for toxicokinetic studies in the animals; the animals were under general anesthesia du ...

## vitamin B12
[1]
  reduction in absorption from the intestinal lumen caused by bile exclusion: 50–60%

## 14C-methyl-γ-amanitin
[2]
  share eliminated in the bile: less than 10%
  share eliminated in the urine: More than 80%
